Patent US8466156B2, “2-phenyl-4-cyclopropyl-pyrimidine derivatives” (Actelion Pharmaceuticals Ltd., priority 2008, dated 2013)

Target: T1, human P2Y12 receptor (Homo sapiens, UniProt Q9H244)
T1 construct: expressed in transfected cells; host or cells: Chinese Hamster Ovary (CHO) cells
Test: P2Y12 receptor binding assay (displacement of tritium-labeled 2-methyl-S-ADP on CHO cells)
Details: CHO cells with recombinant expression of the human P2Y12 receptor, 2 hours at RT
Description: P2Y12 Receptor Binding Assay
Chinese Hamster Ovary (CHO) cells with recombinant expression of the human P2Y12 receptor were cultured in 24 well cell-culture plates. Cells were washed three times with binding buffer (50 mM Tris pH 7.4, 100 mM NaCl, 1 mM EDTA, 0.5% BSA). The cells were then incubated with 0.5 ml per well binding buffer containing tritium-labeled 2-methyl-thio-adenosine 5′-diphosphate (2-methyl-S-ADP) (between 100'000 and 300'000 dpm per well) and various concentrations of test compounds. After incubation at RT for 2 hours, cells were washed three times with binding buffer. Then, cells were solubilized by addition of 0.5 ml solubilization buffer (SDS, NaOH, EDTA). The content of each well was then transferred into beta-counter vials and 2.0 ml of Ultima Gold Scintillation liquid was added.

[1] = comparison with reference compounds of WO 2006/114774

T1 sequence (Q9H244 whole entry): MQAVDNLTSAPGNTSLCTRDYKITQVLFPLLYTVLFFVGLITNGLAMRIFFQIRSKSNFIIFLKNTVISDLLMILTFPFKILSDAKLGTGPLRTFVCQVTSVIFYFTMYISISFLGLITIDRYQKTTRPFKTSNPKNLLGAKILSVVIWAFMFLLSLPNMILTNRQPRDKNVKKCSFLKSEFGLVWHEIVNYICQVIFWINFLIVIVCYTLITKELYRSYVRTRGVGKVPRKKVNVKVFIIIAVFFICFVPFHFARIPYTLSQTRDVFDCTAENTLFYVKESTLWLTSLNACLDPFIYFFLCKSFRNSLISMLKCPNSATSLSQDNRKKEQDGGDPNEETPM

| IC50 (Example compounds table) | Structure (SMILES) | IC50 [1] |
| --- | --- | --- |
|  | CCOC(=O)N1CCN(C(=O)[C@H](CCC(=O)O)NC(=O)c2cc(C3CC3)nc(-c3ccccc3)n2)CC1 [Example 90 of WO 2006/114774, reference compound] | 43 nM |
| 6 nM | CCCCOC(=O)N1CCN(C(=O)[C@H](CCC(=O)O)NC(=O)c2cc(C3CC3)nc(-c3ccccc3)n2)CC1 [Example 1, 4-{(S)-4-carboxy-2-[(6-cyclopropyl-2-phenyl-pyrimidine-4-carbonyl)-amino]-butyryl}-piperazine-1-carboxylic acid butyl ester] |  |
| 4 nM | CCCCOC(=O)N1CCN(C(=O)[C@H](CCC(=O)O)NC(=O)c2cc([C@H]3C[C@@H]3CO)nc(-c3ccccc3)n2)CC1 [Example 4, 4-((S)-4-carboxy-2-{[6-((1S,2S)-2-hydroxymethyl-cyclopropyl)-2-phenyl-pyrimidine-4-carbonyl]-amino}-butyryl)-piperazine-1-carboxylic acid butyl ester] |  |
| 2 nM | CCCCOC(=O)N1CCN(C(=O)[C@H](CCC(=O)O)NC(=O)c2cc([C@H]3C[C@@H]3COC)nc(-c3ccc(F)cc3)n2)CC1 [Example 5, 4-((S)-4-carboxy-2-{[2-(4-fluoro-phenyl)-6-((1S,2S)-2-methoxymethyl-cyclopropyl)-pyrimidine-4-carbonyl]-amino}-butyryl)-piperazine-1-carboxylic acid butyl ester] |  |
|  | CCOC(=O)N1CCN(C(=O)[C@H](CCC(=O)O)NC(=O)c2cc(C3CC3CO)nc(-c3ccccc3)n2)CC1 (some centres unmarked) [Example 500 of WO 2006/114774, reference compound] | 23 nM |
| 5 nM | CCCCOC(=O)N1CCN(C(=O)[C@H](CCC(=O)O)NC(=O)c2cc([C@H]3C[C@@H]3COC)nc(-c3ccccc3)n2)CC1 [Example 3, 4-((S)-4-carboxy-2-{[6-((1S,2S)-2-methoxymethyl-cyclopropyl)-2-phenyl-pyrimidine-4-carbonyl]-amino}-butyryl)-piperazine-1-carboxylic acid butyl ester] |  |

| Structure (SMILES) | IC50 (Example compounds table) | IC50 [1] |
| --- | --- | --- |
| CCCCOC(=O)N1CCN(C(=O)[C@H](CCC(=O)O)NC(=O)c2cc([C@@H]3C[C@@H]3COC)nc(-c3ccccc3)n2)CC1 (mixture of isomers) [Example 6, 4-((S)-4-carboxy-2-{[6-(cis-2-methoxymethyl-cyclopropyl)-2-phenyl-pyrimidine-4-carbonyl]-amino}-butyryl)-piperazine-1-carboxylic acid butyl ester] | 9 nM |  |
| CCCCOC(=O)N1CCN(C(=O)[C@H](CCC(=O)O)NC(=O)c2cc([C@@H]3C[C@H]3COC)nc(-c3ccccc3)n2)CC1 (mixture of isomers) [Example 2, 4-((S)-4-carboxy-2-{[6-(trans-2-methoxymethyl-cyclopropyl)-2-phenyl-pyrimidine-4-carbonyl]-amino}-butyryl)-piperazine-1-carboxylic acid butyl ester] | 3 nM |  |
